pIC50, pKi: −log10 of the molar value. Read-outs that look alike come from different tables or passages of the source.
Tests used:
[1] = Metabolic stability in human liver microsomes; type: in vitro ADME; details: for microsomal CLint / half-life: human, liver microsomes; for half-life: read-out: t1/2, min
Caco-2 = Caco-2 permeability (A-B and B-A); type: in vitro ADME
CB1 = CB1 (UniProt P21554); test: CB1 radioligand binding assay; set-up: species or system human; details: read-out: Ki (CB1)
Summary of the method: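 Radioligand binding to human CB1 stably expressed in CHO cells and to mouse brain membrane CB1 gave binding constants. For selected compounds, antagonism of CP55940-induced CB1 activation was measured in MPXNomad-CB1 HEK293 cells via cAMPNomad (cAMP) and ArresNomad (β-arrestin) fluorescent biosensors.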

[2] = Metabolic stability in mouse liver microsomes; type: in vitro ADME; details: for microsomal CLint / half-life: mouse, liver microsomes; for half-life: read-out: t1/2, min
Brain/CB1 = target: T1, Brain/CB1 (Mus musculus, UniProt P47746); test: Functional GTPγS binding, Brain/CB1; type: biochemical
T1 construct: from tissue; host or cells: mouse brain membranes
T1 sequence (P47746 whole entry): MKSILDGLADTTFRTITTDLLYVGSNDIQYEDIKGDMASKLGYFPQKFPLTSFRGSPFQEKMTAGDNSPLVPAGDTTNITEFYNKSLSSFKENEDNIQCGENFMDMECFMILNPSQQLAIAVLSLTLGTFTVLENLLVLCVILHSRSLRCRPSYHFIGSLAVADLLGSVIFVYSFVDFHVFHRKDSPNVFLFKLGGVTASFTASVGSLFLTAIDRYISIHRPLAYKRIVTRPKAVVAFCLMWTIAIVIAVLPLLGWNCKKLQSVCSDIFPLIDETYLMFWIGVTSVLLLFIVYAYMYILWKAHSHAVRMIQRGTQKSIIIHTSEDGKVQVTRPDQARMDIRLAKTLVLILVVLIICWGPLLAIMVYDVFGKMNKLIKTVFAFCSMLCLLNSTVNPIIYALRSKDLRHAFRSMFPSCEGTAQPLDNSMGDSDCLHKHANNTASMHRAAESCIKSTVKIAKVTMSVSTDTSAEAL

[3] = Caco-2 permeability (A-B and B-A); type: in vitro ADME; details: human; for efflux ratio: Caco-2, quotient of Papp(BA) to Papp(AB)
Cannabinoid receptor 1 [4] = target: T2, Cannabinoid receptor 1 (Homo sapiens, UniProt P21554); test: β-Arrestin mobilization, green ArresNomad biosensor, MPXNomad-CB1 HEK293 cell line, antagonism of CP55940; type: cell-based; details: for reduction in the fluorescence intensity, arrestin assay: CP55940 3 μM
T2 construct: expressed in transfected cells; host or cells: MPXNomad-CB1 HEK293 cell line
T2 sequence (P21554 whole entry): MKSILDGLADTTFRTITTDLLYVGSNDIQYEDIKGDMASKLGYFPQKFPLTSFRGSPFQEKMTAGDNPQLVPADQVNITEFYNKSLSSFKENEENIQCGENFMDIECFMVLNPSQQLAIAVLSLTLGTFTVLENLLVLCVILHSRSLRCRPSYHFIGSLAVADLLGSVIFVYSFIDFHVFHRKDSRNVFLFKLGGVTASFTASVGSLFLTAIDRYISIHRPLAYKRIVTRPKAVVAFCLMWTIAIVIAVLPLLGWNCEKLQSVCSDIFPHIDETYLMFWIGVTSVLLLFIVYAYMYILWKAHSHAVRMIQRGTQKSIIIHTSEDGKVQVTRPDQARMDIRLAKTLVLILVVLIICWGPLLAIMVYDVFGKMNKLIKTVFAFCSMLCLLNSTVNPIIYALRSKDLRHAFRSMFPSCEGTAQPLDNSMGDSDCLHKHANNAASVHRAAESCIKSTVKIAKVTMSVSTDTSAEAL
Method: (§1) A number of these amino carboxamido adducts with a variety of side chains have been synthesized. This led to interesting CB1R binding affinities of the synthesized molecules. Several of these racemic (glycine, valine) or diastereomeric molecules have binding affinities in single digit nanomolar range (2 nM to 10 nM) obtained from radioligand binding assay. Furthermore, we investigated the antagonist effect of a few compounds to analyze their capability to modulate CBIR induced by CP55940 in the MPXNomad-CB1 HEK293 cell line. This cell line has been validated measuring cAMP signaling and ß-Arrestin mobilization analyzing the fluorescence intensity of the red cAMPNomad and the green ArresNomad biosensors.
(§2) The MPXNomad-CB1 cell line was used to test substances or examine their ability to interact with Cannabinoid receptor 1 where an agonist that binds to CB1 activates a G protein, which in turn causes CAMP to be released and a cellular response that is then internalized by ß-Arrestin. The assay determined the efficacy to block the activation of the CB1 receptor brought on by CP55940 in the MPXNomad-CB1 HEK293 cell line. AM251 1 μM and 3 µM was utilized as the positive control, CP55940 3 μM was used as the negative control, and vehicle (DMSO) served as the zero control. Treatment with CP55940 3 μM produced an increment in the fluorescence intensity of the red cAMPNomad and the green ArresNomad biosensors. […] Instead, the reduction was a 50%, 34% and 22% at 1 μM, 100 nM and 10 nM, respectively in the arrestin assay.

Cannabinoid receptor 1 [5] = target: T2, Cannabinoid receptor 1; test: cAMP signaling, red cAMPNomad biosensor, MPXNomad-CB1 HEK293 cell line, antagonism of CP55940; type: cell-based; details: for reduction in the fluorescence intensity, cAMP assay: CP55940 3 μM
Method: as §1, §2

iNOS = iNOS (Mus musculus, UniProt P29477); test: Inducible NOS biochemical assay
Text: Biochemical assay results are presented as the percent inhibition of specific binding or activity (iNOS, CAMP, beta arrestin).

[6] = Caco-2, mean, read-out: Papp (AB), 10^−6 cm/s, Mean
[7] = Caco-2, mean, read-out: Papp (BA), 10^−6 cm/s, Mean
[8] = Caco-2, replicate 1, read-out: Papp (AB), 10^−6 cm/s, 1
[9] = Caco-2, replicate 1, read-out: Papp (BA), 10^−6 cm/s, 1
[10] = Caco-2, replicate 2, read-out: Papp (AB), 10^−6 cm/s, 2
[11] = Caco-2, replicate 2, read-out: Papp (BA), 10^−6 cm/s, 2
[12] = vs CP55940, MPXNomad-CB1 HEK293

Compound	microsomal CLint [1]	half-life [1]	pKi (CB1)	Clint [2]	t1/2, min [2]	pIC50 (Brain/CB1)	t1/2, min [1]	Papp A→B [3, 6]	Papp B→A [3, 7]	Papp A→B [3, 8]	Papp B→A [3, 9]	Papp A→B [3, 10]	Papp B→A [3, 11]	efflux ratio [3]	microsomal CLint [2]	half-life [2]	iNOS inhibition % Response (iNOS)	also measured
CC(C)C(N/C(=N/S(=O)(=O)c1ccc(C(F)(F)F)cc1)N1CCC(c2ccccc2)C(c2ccc(Cl)cc2)=N1)C(N)=O (stereo not shown) [2-(3-(4-chlorophenyl)-4-phenyl-N′-((4-(trifluoromethyl)phenyl)sulfonyl)-1,4,5,6-tetrahydropyridazine-1-carboximidamido)-3-methylbutanamide]																		pIC50 (Cannabinoid receptor 1 [4]; [12]): 9.64; pIC50 (Cannabinoid receptor 1 [5]; [12]): 9.09
C/C(N)=N\C(=N\S(=O)(=O)c1ccc(C(F)(F)F)cc1)N1CCC(c2ccccc2)C(c2ccc(Cl)cc2)=N1 (stereo not shown) [Compound 10b, (Z)—N—((E)-1-aminoethylidene)-3-(4-chlorophenyl)-4-phenyl-N′-((4-(trifluoromethyl)phenyl)sulfonyl)-5,6-dihydropyridazine-1 (4H)-carboximidamide]	2 µL/min/mg	12.7 h	7.82			7.03		2.5 ×10⁻⁶ cm/s	1.9 ×10⁻⁶ cm/s	2.4 ×10⁻⁶ cm/s	1.9 ×10⁻⁶ cm/s	2.5 ×10⁻⁶ cm/s	1.8 ×10⁻⁶ cm/s	0.8	34 µL/min/mg	0.813 h	64%	reduction in the fluorescence intensity, arrestin assay (Cannabinoid receptor 1 [4]; 10 nM): 22%; reduction in the fluorescence intensity, arrestin assay (Cannabinoid receptor 1 [4]; 100 nM): 34%; reduction in the fluorescence intensity, arrestin assay (Cannabinoid receptor 1 [4]; 1 μM): 50%; reduction in the fluorescence intensity, cAMP assay (Cannabinoid receptor 1 [5]; 10 nM): ~19%; reduction in the fluorescence intensity, cAMP assay (Cannabinoid receptor 1 [5]; 100 nM): ~29%; reduction in the fluorescence intensity, cAMP assay (Cannabinoid receptor 1 [5]; 1 μM): ~47%
CC(C)(C)/C(N)=N/C(=N/S(=O)(=O)c1ccc(C(F)(F)F)cc1)N1CCC(c2ccccc2)C(c2ccc(Cl)cc2)=N1 (stereo not shown) [Compound 10o, (Z)—N—((Z)-1-amino-2,2-dimethylpropylidene)-3-(4-chlorophenyl)-4-phenyl-N′-((4-(trifluoromethyl)phenyl)sulfonyl)-5,6-dihydropyridazine-1 (4H)-carboximidamide]	26 µL/min/mg	1.07 h	8.00		1.23 h	7.74	1.07 h	2.2 ×10⁻⁶ cm/s	0.5 ×10⁻⁶ cm/s	1.9 ×10⁻⁶ cm/s	0.5 ×10⁻⁶ cm/s	2.4 ×10⁻⁶ cm/s	0.5 ×10⁻⁶ cm/s	0.2	23 µL/min/mg	1.13 h	66%	
N/C(=N\C(=N\S(=O)(=O)c1ccc(C(F)(F)F)cc1)N1CCC(c2ccccc2)C(c2ccc(Cl)cc2)=N1)c1ccc(F)cc1F (stereo not shown) [Compound 10p, (Z)—N—((Z)-amino (2,4-difluorophenyl)methylene)-3-(4-chlorophenyl)-4-phenyl-N′-((4-(trifluoromethyl)phenyl)sulfonyl)-5,6-dihydropyridazine-1 (4H)-carboximidamide]	6 µL/min/mg	4.8 h	8.02		1.13 h	7.89		1.4 ×10⁻⁶ cm/s	0.6 ×10⁻⁶ cm/s	1.5 ×10⁻⁶ cm/s	0.6 ×10⁻⁶ cm/s	1.3 ×10⁻⁶ cm/s	0.5 ×10⁻⁶ cm/s	0.4	25 µL/min/mg	1.3 h	36%	

Second part, led by results:

microsomal CLint [1]	half-life [1]	pKi (CB1)	Clint [2]	t1/2, min [2]	pIC50 (Brain/CB1)	t1/2, min [1]	Papp A→B [3, 6]	Papp B→A [3, 7]	Papp A→B [3, 8]	Papp B→A [3, 9]	Papp A→B [3, 10]	Papp B→A [3, 11]	efflux ratio [3]	microsomal CLint [2]	half-life [2]	iNOS inhibition % Response (iNOS)	Compound	also measured
23 µL/min/mg	1.22 h	7.88	236 µL/min/mg	0.118 h	6.41												CC(C)C(N/C(=N/S(=O)(=O)c1ccc(C(F)(F)F)cc1)N1CCC(c2ccccc2)C(c2ccc(Cl)cc2)=N1)C(N)=O (single isomer, unassigned) [Compound 29a, (Z)-2-(3-(4-chlorophenyl)-4-phenyl-N′-((4-(trifluoromethyl)phenyl)sulfonyl)-1,4,5,6-tetrahydropyridazine-1-carboximidamido)-3-methylbutanamide]	Papp (AB), 10^−6 cm/s, Mean (Caco-2; mean): 1.4 10^−6 cm/s; Papp (BA), 10^−6 cm/s, Mean (Caco-2; mean): 0.5 10^−6 cm/s; efflux ratio (Caco-2; quotient of Papp(BA) to Papp(AB)): 0.4; Papp (AB), 10^−6 cm/s, 1 (Caco-2; replicate 1): 1.4 10^−6 cm/s; Papp (BA), 10^−6 cm/s, 1 (Caco-2; replicate 1): 0.5 10^−6 cm/s; Papp (AB), 10^−6 cm/s, 2 (Caco-2; replicate 2): 1.4 10^−6 cm/s; Papp (BA), 10^−6 cm/s, 2 (Caco-2; replicate 2): 0.5 10^−6 cm/s
		8.57	883 µL/min/mg	0.0317 h	8.00	1.91 h	0.9 ×10⁻⁶ cm/s	0.3 ×10⁻⁶ cm/s	0.9 ×10⁻⁶ cm/s	0.3 ×10⁻⁶ cm/s	1 ×10⁻⁶ cm/s	0.4 ×10⁻⁶ cm/s	0.4				CC(C)C(N/C(=N/S(=O)(=O)c1ccc(C(F)(F)F)cc1)N1CCC(c2ccccc2)C(c2ccc(Cl)cc2)=N1)C(N)=O (single isomer, unassigned) [Compound 29b, (Z)-2-(3-(4-chlorophenyl)-4-phenyl-N′-((4-(trifluoromethyl)phenyl)sulfonyl)-1,4,5,6-tetrahydropyridazine-1-carboximidamido)-3-methylbutanamide]	Clint [1]: 15 µL/min/mg
